Laboratory results: patent US20070218486A1, “Immunoassays, Haptens, Immunogens and Antibodies for Anti-HIV Therapeutics” (Ark Diagnostics, Inc., priority 2006, published 2007)
Counter-ions that a name gives are not always drawn. Like-named read-outs stand apart in the source and are kept apart here.

Key:
Anti-(H12)2 = assay: Specificity of the immunoassay (cross-reactivity in human serum); format: binding, rabbit; settings: 10 μg/mL of crossreactant plus 5 μg/mL of tipranavir in human serum
Description: Also antibody Anti-(H12)2 was used in this Example as part of an antibody reagent (“Anti-(H12)2 Antibody Reagent”) further comprising nicotinamide adenine dinucleotide, glucose-6-phosphate, sodium chloride, bulking agent, surfactant, and preservatives.
An immunoassay for tipranavir was conducted on the Cobas Mira Chemistry Analyzer (Roche). On the analyzer, 4 μL of sample plus 61 μL water were incubated for 300 sec with 150 μL of Anti-(H12)2 Antibody Reagent. […] After 25 sec incubation, enzyme activity was monitored by following the production of NADH spectrophotometrically at 340 nm for 50 sec.
Testing was performed on the Cobas Mira analyzer. The percentage concentration above 5 μg/mL of tipranavir was calculated for each crossreactant.

[1] = cited from earlier work
CYP450 enzymes = settings: in vitro; cited from earlier work
[2] = target: T1, mammalian DNA polymerases α (Homo sapiens, UniProt P09884); settings: cited from earlier work
T1 sequence (P09884 1-1462): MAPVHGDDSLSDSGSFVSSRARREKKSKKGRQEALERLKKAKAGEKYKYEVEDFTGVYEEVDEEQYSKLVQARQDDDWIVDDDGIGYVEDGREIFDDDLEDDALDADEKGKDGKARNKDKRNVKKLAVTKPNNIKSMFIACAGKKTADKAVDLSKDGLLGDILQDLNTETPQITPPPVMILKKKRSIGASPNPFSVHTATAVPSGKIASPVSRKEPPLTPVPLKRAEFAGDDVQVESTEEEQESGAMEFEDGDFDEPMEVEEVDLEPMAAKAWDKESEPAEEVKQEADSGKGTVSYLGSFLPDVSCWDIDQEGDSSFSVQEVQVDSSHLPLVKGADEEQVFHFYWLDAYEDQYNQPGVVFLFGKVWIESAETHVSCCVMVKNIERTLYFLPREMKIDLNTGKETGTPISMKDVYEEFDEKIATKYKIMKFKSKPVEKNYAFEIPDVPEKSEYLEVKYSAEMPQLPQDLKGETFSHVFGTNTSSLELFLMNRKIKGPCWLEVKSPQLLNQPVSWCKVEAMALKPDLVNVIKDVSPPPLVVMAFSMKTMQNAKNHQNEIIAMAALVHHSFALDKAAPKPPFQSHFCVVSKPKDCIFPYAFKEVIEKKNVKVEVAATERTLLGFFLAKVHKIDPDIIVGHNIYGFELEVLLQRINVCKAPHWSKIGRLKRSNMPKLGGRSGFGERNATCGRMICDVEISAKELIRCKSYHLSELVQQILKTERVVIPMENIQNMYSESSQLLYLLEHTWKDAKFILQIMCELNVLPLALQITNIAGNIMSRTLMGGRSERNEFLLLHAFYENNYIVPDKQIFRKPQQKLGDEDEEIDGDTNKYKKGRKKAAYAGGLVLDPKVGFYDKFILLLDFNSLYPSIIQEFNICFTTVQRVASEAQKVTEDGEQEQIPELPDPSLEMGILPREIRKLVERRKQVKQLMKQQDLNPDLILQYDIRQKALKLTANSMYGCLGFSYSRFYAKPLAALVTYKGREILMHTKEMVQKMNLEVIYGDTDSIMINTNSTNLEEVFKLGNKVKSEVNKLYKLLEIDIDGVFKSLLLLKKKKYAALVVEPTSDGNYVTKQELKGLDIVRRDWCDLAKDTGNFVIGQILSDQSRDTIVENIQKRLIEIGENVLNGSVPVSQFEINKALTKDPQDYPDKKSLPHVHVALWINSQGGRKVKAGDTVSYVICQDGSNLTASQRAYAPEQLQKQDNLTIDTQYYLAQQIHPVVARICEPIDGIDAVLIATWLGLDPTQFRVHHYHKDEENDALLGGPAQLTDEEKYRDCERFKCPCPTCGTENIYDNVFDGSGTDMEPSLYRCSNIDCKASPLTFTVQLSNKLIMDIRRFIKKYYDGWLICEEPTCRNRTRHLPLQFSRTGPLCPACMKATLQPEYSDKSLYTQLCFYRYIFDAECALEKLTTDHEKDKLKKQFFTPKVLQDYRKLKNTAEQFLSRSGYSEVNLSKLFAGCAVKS

[3] = target: mammalian DNA polymerases β (Homo sapiens, UniProt P06746); settings: cited from earlier work
[4] = target: T2, mitochondrial DNA polymerase γ (Homo sapiens, UniProt P54098); settings: cited from earlier work
T2 sequence (P54098 1-1239): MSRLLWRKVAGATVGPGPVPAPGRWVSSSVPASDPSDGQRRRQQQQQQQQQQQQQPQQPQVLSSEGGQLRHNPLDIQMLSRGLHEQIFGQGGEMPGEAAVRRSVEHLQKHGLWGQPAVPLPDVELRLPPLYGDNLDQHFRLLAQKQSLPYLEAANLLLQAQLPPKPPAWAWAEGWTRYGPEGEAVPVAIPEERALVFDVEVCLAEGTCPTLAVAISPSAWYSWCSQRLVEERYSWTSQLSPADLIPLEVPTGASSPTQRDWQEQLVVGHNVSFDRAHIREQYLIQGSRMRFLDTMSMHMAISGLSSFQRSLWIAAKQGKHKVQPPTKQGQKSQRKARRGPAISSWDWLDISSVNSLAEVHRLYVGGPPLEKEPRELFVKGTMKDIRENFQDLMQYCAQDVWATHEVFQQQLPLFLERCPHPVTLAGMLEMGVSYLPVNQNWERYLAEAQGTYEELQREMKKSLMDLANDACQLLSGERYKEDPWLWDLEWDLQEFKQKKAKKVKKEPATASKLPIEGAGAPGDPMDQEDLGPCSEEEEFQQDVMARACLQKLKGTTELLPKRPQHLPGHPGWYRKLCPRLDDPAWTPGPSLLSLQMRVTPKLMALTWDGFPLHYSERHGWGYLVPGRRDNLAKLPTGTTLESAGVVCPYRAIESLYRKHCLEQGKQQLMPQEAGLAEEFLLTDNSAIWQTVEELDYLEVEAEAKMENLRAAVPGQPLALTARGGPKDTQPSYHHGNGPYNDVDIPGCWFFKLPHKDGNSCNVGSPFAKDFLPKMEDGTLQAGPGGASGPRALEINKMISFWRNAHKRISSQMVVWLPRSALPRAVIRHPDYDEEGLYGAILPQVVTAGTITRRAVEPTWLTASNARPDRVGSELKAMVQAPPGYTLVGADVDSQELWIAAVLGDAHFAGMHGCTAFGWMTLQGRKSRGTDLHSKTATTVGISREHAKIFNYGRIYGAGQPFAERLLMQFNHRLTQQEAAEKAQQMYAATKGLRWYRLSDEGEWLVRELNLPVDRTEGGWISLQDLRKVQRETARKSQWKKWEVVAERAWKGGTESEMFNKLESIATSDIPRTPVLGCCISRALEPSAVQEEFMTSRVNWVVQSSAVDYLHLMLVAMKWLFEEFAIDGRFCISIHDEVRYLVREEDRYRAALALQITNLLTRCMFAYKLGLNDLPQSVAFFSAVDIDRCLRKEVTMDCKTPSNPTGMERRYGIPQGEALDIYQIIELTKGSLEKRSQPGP

primary hepatocyte [5] = settings: rat; cited from earlier work
primary hepatocyte [6] = settings: dog; cited from earlier work
primary hepatocyte [7] = settings: human; cited from earlier work
[8] = rats; cited from earlier work
[9] = dogs; cited from earlier work
[10] = cited from earlier work; remark: listed apart in the source

Compound: Cc1c(O)cccc1C(=O)N[C@@H](CSc1ccccc1)[C@H](O)CN1C[C@H]2CCCC[C@H]2C[C@H]1C(=O)NC(C)(C)C [Nelfinavir]
- Percent Increase in Apparent Tipranavir (Anti-(H12)2): 0%

Compound: Tenofovir
- dose recovered in the urine as unchanged tenofovir ([1]; IV administration, within 72 hours of dosing): 70-80%
- terminal elimination half-life ([1]; single dose, oral administration of Tenofovir disoproxil fumarate): approximately 17 hours
- substrate of CYP450 enzymes (CYP450 enzymes): neither tenofovir disoproxil nor tenofovir are substrates of CYP450 enzymes

Compound: Cc1cccc(C)c1OCC(=O)N[C@@H](Cc1ccccc1)[C@@H](O)C[C@H](Cc1ccccc1)NC(=O)[C@H](C(C)C)N1CCCNC1=O [Lopinavir]
- Percent Increase in Apparent Tipranavir (Anti-(H12)2): 0%

Compound: O=C1Nc2ccc(Cl)cc2[C@@](C#CC2CC2)(C(F)(F)F)O1 [Efavirenz]
- Percent Increase in Apparent Tipranavir (Anti-(H12)2): 0%

Compound: CC(C)(C)NC(=O)[C@@H]1C[C@@H]2CCCC[C@@H]2CN1C[C@@H](O)[C@H](Cc1ccccc1)NC(=O)[C@H](CC(N)=O)NC(=O)c1ccc2ccccc2n1 [Saquinavir]
- Percent Increase in Apparent Tipranavir (Anti-(H12)2): 0%

Compound: CC(Cn1cnc2c(N)ncnc21)OCP(=O)(O)OP(=O)(O)OP(=O)(O)O (stereo in doubt) [Tenofovir diphosphate]
- inhibition of DNA polymerase α [2]: weak inhibitor
- inhibition of DNA polymerase β [3]: weak inhibitor
- inhibition of mitochondrial DNA polymerase γ [4]: weak inhibitor

Compound: CC(C)(C)NC(=O)[C@@H]1CN(Cc2cccnc2)CCN1C[C@@H](O)C[C@@H](Cc1ccccc1)C(=O)N[C@H]1c2ccccc2C[C@H]1O [Indinavir]
- Percent Increase in Apparent Tipranavir (Anti-(H12)2): 0%

Compound: CC(C)CN(C[C@@H](O)[C@H](Cc1ccccc1)NC(=O)O[C@H]1CCOC1)S(=O)(=O)c1ccc(N)cc1 [Amprenavir]
- Percent Increase in Apparent Tipranavir (Anti-(H12)2): 0%

Compound: CC(C)OC(=O)OCOP(=O)(CO[C@H](C)Cn1cnc2c(N)ncnc21)OCOC(=O)OC(C)C [tenofovir disoproxil]
- substrate of CYP450 enzymes (CYP450 enzymes): neither tenofovir disoproxil nor tenofovir are substrates of CYP450 enzymes

Compound: CC(C)OC(=O)OCOP(=O)(CO[C@H](C)Cn1cnc2c(N)ncnc21)OCOC(=O)OC(C)C [Tenofovir disoproxil fumarate]
- administered dose recovered in urine ([1]; multiple oral doses 300 mg once daily (under fed conditions), over 24 hours): 32±10%

Compound: CCC[C@@]1(CCc2ccccc2)CC(O)=C([C@H](CC)c2cccc(NS(=O)(=O)c3ccc(C(F)(F)F)cn3)c2)C(=O)O1 [Tipranavir]
- stability in primary hepatocyte incubations (primary hepatocyte [5]): stable
- stability in primary hepatocyte incubations (primary hepatocyte [6]): stable
- stability in primary hepatocyte incubations (primary hepatocyte [7]): stable
- plasma metabolic profile [8]: only the parent drug
- plasma metabolic profile [9]: only the parent drug

Compound: CC(C)c1nc(CN(C)C(=O)N[C@H](C(=O)N[C@@H](Cc2ccccc2)C[C@H](O)[C@H](Cc2ccccc2)NC(=O)OCc2cncs2)C(C)C)cs1 [Ritonavir]
- Percent Increase in Apparent Tipranavir (Anti-(H12)2): 0%

Compound: 2′-deoxy-3′-thiacytidine [Lamivudine]
- Percent Increase in Apparent Tipranavir (Anti-(H12)2): 0%
- absolute bioavailability ([10]; adults): approximately 82%
- absolute bioavailability ([10]; children): ~68%
- time to maximum serum concentrations after the dose ([10]; oral administration): 0.5 to 1.5 h
- oral dose eliminated renally as unchanged drug ([10]; oral dose): approximately 70%
- secretion into breast milk ([10]; postpartum women): secreted into breast milk
- placental transfer ([10]; pregnant women): diffuses freely across the placenta
- systemic exposure (AUC) when administered with food ([10]; with food): not altered
